Measured values from article PMC6979384, “Characterization of the plant homeodomain (PHD) reader family for their histone tail interactions” (Epigenetics & Chromatin, 2020).

Tests used:
Assay in all cases: Histone peptide microarray
Format in all cases: binding, human
AIRE (PP) = details: AIRE (PP); sheet "Array Heatmap"; each array performed twice, total n = 4
How it was run: (§1)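 Purified PHD finger domains fused to GST are screened against 293 synthetic histone peptides bearing one or several post-translational modifications. The protein is used at 0.5 μM, and the signal from four replicate arrays is averaged, with standard deviation given.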

BAZ2B = details: BAZ2B; sheet "Array Heatmap"; each array performed twice, total n = 4
How it was run: as §1

BPTF (PB) = details: BPTF (PB); sheet "Array Heatmap"; each array performed twice, total n = 4
How it was run: as §1

CHD4 (PPCC) = details: CHD4 (PPCC); sheet "Array Heatmap"; each array performed twice, total n = 4
How it was run: as §1

CHD5 (PCC) = details: CHD5 (PCC); sheet "Array Heatmap"; each array performed twice, total n = 4
How it was run: as §1

CHD5 (PPCC) = details: CHD5 (PPCC); sheet "Array Heatmap"; each array performed twice, total n = 4
How it was run: as §1

DIDO1 = details: DIDO1; sheet "Array Heatmap"; each array performed twice, total n = 4
How it was run: as §1

DPF2 (PPC2W2) = details: DPF2 (PPC2W2); sheet "Array Heatmap"; each array performed twice, total n = 4
How it was run: as §1

ING1 = details: ING1; sheet "Array Heatmap"; each array performed twice, total n = 4
How it was run: as §1

ING2 = details: ING2; sheet "Array Heatmap"; each array performed twice, total n = 4
How it was run: as §1

ING3 = details: ING3; sheet "Array Heatmap"; each array performed twice, total n = 4
How it was run: as §1

ING4 = details: ING4; sheet "Array Heatmap"; each array performed twice, total n = 4
How it was run: as §1

ING5 = details: ING5; sheet "Array Heatmap"; each array performed twice, total n = 4
How it was run: as §1

KDM4C (TTP) = details: KDM4C (TTP); sheet "Array Heatmap"; each array performed twice, total n = 4
How it was run: as §1

KDM5A (1) = details: KDM5A (1); sheet "Array Heatmap"; each array performed twice, total n = 4
How it was run: as §1

KDM5A (3) = details: KDM5A (3); sheet "Array Heatmap"; each array performed twice, total n = 4
How it was run: as §1

KDM5B (1) = details: KDM5B (1); sheet "Array Heatmap"; each array performed twice, total n = 4
How it was run: as §1

KDM5B (3) = details: KDM5B (3); sheet "Array Heatmap"; each array performed twice, total n = 4
How it was run: as §1

KDM7A = details: KDM7A; sheet "Array Heatmap"; each array performed twice, total n = 4
How it was run: as §1

MLL5 = details: MLL5; sheet "Array Heatmap"; each array performed twice, total n = 4
How it was run: as §1

MORC3 (CW) = details: MORC3 (CW); sheet "Array Heatmap"; each array performed twice, total n = 4
How it was run: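 GST-tagged PHD finger readers were expressed, purified and applied at 0.5 μM to a microarray of 293 synthetic histone peptides carrying single or combinatorial PTMs, using an optimized protocol. Binding signals are averages with standard deviation from 4 replicates.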

PHF13 = details: PHF13; sheet "Array Heatmap"; each array performed twice, total n = 4
How it was run: as §1

PHF21A = details: PHF21A; sheet "Array Heatmap"; each array performed twice, total n = 4
How it was run: as §1

PHF23 = details: PHF23; sheet "Array Heatmap"; each array performed twice, total n = 4
How it was run: as §1

PHF2 = details: PHF2; sheet "Array Heatmap"; each array performed twice, total n = 4
How it was run: as §1

PHF8 = details: PHF8; sheet "Array Heatmap"; each array performed twice, total n = 4
How it was run: as §1

PHRF1 (RP) = details: PHRF1 (RP); sheet "Array Heatmap"; each array performed twice, total n = 4
How it was run: as §1

RAG2 = details: RAG2; sheet "Array Heatmap"; each array performed twice, total n = 4
How it was run: as §1

SP140L = details: SP140L; sheet "Array Heatmap"; each array performed twice, total n = 4
How it was run: as §1

TAF3 = details: TAF3; sheet "Array Heatmap"; each array performed twice, total n = 4
How it was run: as §1

TRIM66 (PB) = details: TRIM66 (PB); sheet "Array Heatmap"; each array performed twice, total n = 4
How it was run: as §1

Substance	Array Heatmap value (peptide array signal) (AIRE (PP))	Array Heatmap value (peptide array signal) (BAZ2B)	Array Heatmap value (peptide array signal) (BPTF (PB))	Array Heatmap value (peptide array signal) (CHD4 (PPCC))	Array Heatmap value (peptide array signal) (CHD5 (PCC))	Array Heatmap value (peptide array signal) (CHD5 (PPCC))	Array Heatmap value (peptide array signal) (DIDO1)	Array Heatmap value (peptide array signal) (DPF2 (PPC2W2))	Array Heatmap value (peptide array signal) (ING1)	Array Heatmap value (peptide array signal) (ING2)	Array Heatmap value (peptide array signal) (ING3)	Array Heatmap value (peptide array signal) (ING4)	Array Heatmap value (peptide array signal) (ING5)	Array Heatmap value (peptide array signal) (KDM4C (TTP))	Array Heatmap value (peptide array signal) (KDM5A (1))	Array Heatmap value (peptide array signal) (KDM5A (3))	Array Heatmap value (peptide array signal) (KDM5B (1))	Array Heatmap value (peptide array signal) (KDM5B (3))	Array Heatmap value (peptide array signal) (KDM7A)	Array Heatmap value (peptide array signal) (MLL5)	other results
H4K5ac + K8ac + K12me1 + K16ac: H4 1-23	0.4852	0.5334	0.4205	0.628	0.8246	0.6457	0.7398	0.7404	0.5999	0.6062	0.5746	0.538	0.4233	0.5546	0.525	0.4814	0.6517	0.5615	0.3906	0.5904	Array Heatmap value (peptide array signal) (MORC3 (CW)): 0.4079; Array Heatmap value (peptide array signal) (PHF13): 0.7176; Array Heatmap value (peptide array signal) (PHF21A): 0.5148; Array Heatmap value (peptide array signal) (PHF23): 0.5681; Array Heatmap value (peptide array signal) (PHF2): 0.5943; Array Heatmap value (peptide array signal) (PHF8): 0.3954; Array Heatmap value (peptide array signal) (PHRF1 (RP)): 0.5035; Array Heatmap value (peptide array signal) (RAG2): 0.2841; Array Heatmap value (peptide array signal) (SP140L): 0.4016; Array Heatmap value (peptide array signal) (TAF3): 0.2985; Array Heatmap value (peptide array signal) (TRIM66 (PB)): 0.6523
H4K5ac + K8ac + K16ac: H4 1-23	0.4269	0.469	0.3802	0.6069	0.7848	0.5628	0.7386	0.7091	0.5586	0.5942	0.5105	0.4699	0.3649	0.487	0.4528	0.4685	0.6453	0.4621	0.3432	0.5646	Array Heatmap value (peptide array signal) (MORC3 (CW)): 0.3785; Array Heatmap value (peptide array signal) (PHF13): 0.6186; Array Heatmap value (peptide array signal) (PHF21A): 0.485; Array Heatmap value (peptide array signal) (PHF23): 0.5402; Array Heatmap value (peptide array signal) (PHF2): 0.5897; Array Heatmap value (peptide array signal) (PHF8): 0.3765; Array Heatmap value (peptide array signal) (PHRF1 (RP)): 0.4907; Array Heatmap value (peptide array signal) (RAG2): 0.2519; Array Heatmap value (peptide array signal) (SP140L): 0.3822; Array Heatmap value (peptide array signal) (TAF3): 0.2628; Array Heatmap value (peptide array signal) (TRIM66 (PB)): 0.6293
